Measurements reported in PubChem BioAssay AID256 (DTP/NCI, 2004).
“And” between values parts separate entries of the source, which are not always exact repeats. Equal values may be shown once. Inconclusive results and toxic doses are left out. The calls were made as follows: active = survival T/C of 150% or more; inactive = T/C below 125% in these data.

Tested on: CD2F1 mice, L1210 leukemia ip, survival T/C
Assay: NCI In Vivo Anticancer Drug Screen. Data for tumor model L1210 Leukemia (intraperitoneal) in CD2F1 (CDF1) mice
Settings: endpoint: mean survival time, higher = longer survival
Summary of the method: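 Activity against a transplanted murine tumor was judged by comparing the compound group with a vehicle group. The outcome in the treated animals was divided by that in the controls.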

[1] = dose: 25.0 mg/kg/injection, schedule: Q01DX009 (ip), vehicle: saline with Tween-80
[2] = dose: 100.0 mg/kg/injection, schedule: Q04DX003 (ip), vehicle: saline with Tween-80
[3] = dose: 100.0 mg/kg/injection, schedule: Q01DX001 (ip), vehicle: saline with Tween-80
[4] = dose: 200.0 mg/kg/injection, schedule: Q01DX001 (ip), vehicle: saline with Tween-80
[5] = dose: 400.0 mg/kg/injection, schedule: Q01DX001 (ip), vehicle: saline with Tween-80
[6] = dose: 200.0 mg/kg/injection, schedule: Q04DX003 (ip), vehicle: saline with Tween-80
[7] = dose: 400.0 mg/kg/injection, schedule: Q04DX003 (ip), vehicle: saline with Tween-80
[8] = dose: 50.0 mg/kg/injection, schedule: Q01DX009 (ip), vehicle: saline with Tween-80
[9] = dose: 100.0 mg/kg/injection, schedule: Q01DX009 (ip), vehicle: saline with Tween-80
[10] = dose: 200.0 mg/kg/injection, schedule: Q01DX009 (ip), vehicle: saline with Tween-80
[11] = dose: 400.0 mg/kg/injection, schedule: Q01DX009 (ip), vehicle: saline with Tween-80

Measured: T/C

C/C=C/C(=O)NCC(C(C)C)/[N+]([O-])=N/O (configuration not stated)
inactive: dose: 6.25 mg/kg/injection, schedule: Q01DX009 (ip), vehicle: saline with Tween-80 94 % of control | dose: 12.5 mg/kg/injection, schedule: Q01DX009 (ip), vehicle: saline with Tween-80 103 % of control | [1] 94 % of control

O=S1Cc2ccccc2C1
inactive: [2] 98 % of control

CCCC(NC(=O)CN)C(=O)O (configuration not stated)
inactive: dose: 100.0 mg/kg/injection, schedule: Q04DX003 (ip), vehicle: saline 100 % of control | dose: 200.0 mg/kg/injection, schedule: Q04DX003 (ip), vehicle: saline 97 % of control | dose: 400.0 mg/kg/injection, schedule: Q04DX003 (ip), vehicle: saline 102 % of control

Nc1nc2c(ncn2-c2ccc(OCCNC(=O)Nc3ccc(S(=O)(=O)F)cc3)cc2)c(=O)[nH]1
inactive: [3] 95 % of control | [4] 94 % of control | [5] 94 % of control

CCCCCCCCCCOC(=O)Nc1cccc(O)c1
inactive: [2] 95 % of control | [6] 95 % of control | [7] 98 % of control

CC(=O)c1ccc([NH-])c([NH-])c1.[Cl][Pt+2][Cl]
inactive: dose: 2.5 mg/kg/injection, schedule: Q01DX009 (ip), vehicle: distilled water + Tween-80 102 % of control | dose: 5.0 mg/kg/injection, schedule: Q01DX009 (ip), vehicle: distilled water + Tween-80 104 % of control | dose: 10.0 mg/kg/injection, schedule: Q01DX009 (ip), vehicle: distilled water + Tween-80 109 % of control and 112 % of control | dose: 20.0 mg/kg/injection, schedule: Q01DX009 (ip), vehicle: distilled water + Tween-80 114 % of control

CCOC(=O)N(OCc1ccccc1)P(=O)(N1CC1(C)C)N1CC1(C)C (configuration not stated)
inactive: [1] 95 % of control | [8] 93 % of control | [9] 98 % of control

Cc1[nH]c(=S)[nH]c(=O)c1CCS
inactive: dose: 100.0 mg/kg/injection, schedule: Q01DX001 (ip), vehicle: saline 104 % of control | dose: 200.0 mg/kg/injection, schedule: Q01DX001 (ip), vehicle: saline 101 % of control | dose: 400.0 mg/kg/injection, schedule: Q01DX001 (ip), vehicle: saline 98 % of control

COc1ccc(C(OC(=O)Oc2ccccc2)c2ccccc2)cc1 (configuration not stated)
inactive: dose: 100.0 mg/kg/injection, schedule: Q04DX002 (ip), vehicle: other 93 % of control | dose: 200.0 mg/kg/injection, schedule: Q04DX002 (ip), vehicle: other 96 % of control | dose: 400.0 mg/kg/injection, schedule: Q04DX002 (ip), vehicle: other 96 % of control

O=[N+]([O-])c1ccc2ncccc2c1
inactive: dose: 25.0 mg/kg/injection, schedule: Q01DX009 (ip), vehicle: other 101 % of control | dose: 50.0 mg/kg/injection, schedule: Q01DX009 (ip), vehicle: other 105 % of control | dose: 100.0 mg/kg/injection, schedule: Q01DX009 (ip), vehicle: other 104 % of control

COC1=CC2=C3[C@H](Cc4cc5c(c(c4)Oc4ccc(cc4)C[C@H]4c6cc7c(cc6CCN4C)OCC3(O7)C1=O)OCO5)N(C)CC2 (some centres not stated)
inactive: dose: 50.0 mg/kg/injection, schedule: Q04DX003 (ip), vehicle: saline with Tween-80 96 % of control | [2] 98 % of control | [6] 96 % of control

CN(C)N=Nc1ccc(C#N)cc1C(N)=O
inactive: dose: 18.8 mg/kg/injection, schedule: Q01DX009 (ip), vehicle: Klucel (hydroxypropylcellulose) (HPC) 106 % of control | dose: 37.5 mg/kg/injection, schedule: Q01DX009 (ip), vehicle: Klucel (hydroxypropylcellulose) (HPC) 119 % of control | dose: 150.0 mg/kg/injection, schedule: Q01DX009 (ip), vehicle: Klucel (hydroxypropylcellulose) (HPC) 101 % of control

CCN(CC)c1cccc(OC(=O)NC)c1
inactive: dose: 5.0 mg/kg/injection, schedule: Q01DX001 (ip), vehicle: saline 102 % of control | dose: 10.0 mg/kg/injection, schedule: Q01DX001 (ip), vehicle: saline 102 % of control | dose: 20.0 mg/kg/injection, schedule: Q01DX001 (ip), vehicle: saline 102 % of control

CC(=O)Nc1cc2c3c(c1)CCN3CCC2
inactive: dose: 3.13 mg/kg/injection, schedule: Q01DX001 (ip), vehicle: saline 100 % of control | dose: 6.25 mg/kg/injection, schedule: Q01DX001 (ip), vehicle: saline 113 % of control | dose: 12.5 mg/kg/injection, schedule: Q01DX001 (ip), vehicle: saline 112 % of control

CCC(=O)O/N=C(\c1ccccc1)c1cccnc1
inactive: dose: 100.0 mg/kg/injection, schedule: Q01DX001 (ip), vehicle: other 113 % of control | dose: 200.0 mg/kg/injection, schedule: Q01DX001 (ip), vehicle: other 98 % of control | dose: 400.0 mg/kg/injection, schedule: Q01DX001 (ip), vehicle: other 101 % of control

Cc1nc(-c2cccc(Cl)c2)oc1-c1ccccc1
inactive: dose: 100.0 mg/kg/injection, schedule: Q04DX002 (ip), vehicle: saline with Tween-80 115 % of control | dose: 200.0 mg/kg/injection, schedule: Q04DX002 (ip), vehicle: saline with Tween-80 121 % of control

Nc1nccc(N2CCCCC2)n1
inactive: dose: 6.25 mg/kg/injection, schedule: Q04DX003 (ip), vehicle: saline with Tween-80 100 % of control | dose: 12.5 mg/kg/injection, schedule: Q04DX003 (ip), vehicle: saline with Tween-80 100 % of control | dose: 25.0 mg/kg/injection, schedule: Q04DX003 (ip), vehicle: saline with Tween-80 97 % of control

[CH3][Sn]([CH3])([Br])[CH2]CC[CH2][Sn]([CH3])([CH3])[Br]
inactive: dose: 0.02 mg/kg/injection, schedule: Q01DX009 (ip), vehicle: saline 100 % of control | dose: 0.04 mg/kg/injection, schedule: Q01DX009 (ip), vehicle: saline 104 % of control | dose: 0.08 mg/kg/injection, schedule: Q01DX009 (ip), vehicle: saline 102 % of control | dose: 6.25 mg/kg/injection, schedule: Q01DX009 (ip), vehicle: saline 110 % of control

CON(C)CCOC(=O)c1ccc([N+](=O)[O-])cc1
inactive: [3] 100 % of control | [4] 107 % of control | [5] 105 % of control

CC(=O)OC1CCC2(C)CCCC(O)C2(O)C1 (configuration not stated)
inactive: [1] 103 % of control | [8] 116 % of control | [9] 107 % of control | dose: 100.0 mg/kg/injection, schedule: Q04DX003 (ip), vehicle: acetone 101 % of control | dose: 150.0 mg/kg/injection, schedule: Q01DX009 (ip), vehicle: saline 97 % of control | dose: 225.0 mg/kg/injection, schedule: Q01DX009 (ip), vehicle: saline 100 % of control | dose: 335.0 mg/kg/injection, schedule: Q01DX009 (ip), vehicle: saline 91 % of control

CS(=O)(=O)c1ccccn1
inactive: dose: 100.0 mg/kg/injection, schedule: Q01DX001 (ip), vehicle: saline sonified 100 % of control | dose: 200.0 mg/kg/injection, schedule: Q01DX001 (ip), vehicle: saline sonified 97 % of control | dose: 400.0 mg/kg/injection, schedule: Q01DX001 (ip), vehicle: saline sonified 100 % of control

CC1=CCC(C(C)(C)c2ccc(O)cc2)CC1 (configuration not stated)
inactive: [1] 94 % of control | [8] 110 % of control | [9] 98 % of control | [2] 90 % of control | [10] 96 % of control | [6] 104 % of control | [7] 90 % of control

O=C(CCCCC(=O)N/N=C/c1ccco1)N/N=C/c1ccco1
inactive: [9] 92 % of control | [10] 88 % of control | [11] 93 % of control

CCCCCCCC(=O)Oc1ccc(N=Nc2ccc(OCC)cc2)cc1
inactive: [9] 93 % of control | [2] 95 % of control | [10] 90 % of control | [6] 95 % of control | [11] 98 % of control | [7] 89 % of control
